{"source": "patent US20170044150A1", "about": "“IDENTIFICATION OF COMPOUNDS WHICH INHIBIT ATG8-ATG3 PROTEIN-PROTEIN INTERACTION AND THEIR USE AS ANTIPARASITICAL AGENTS” (THE JOHNS HOPKINS UNIVERSITY, priority 2014, published 2017)", "key": {"P. falciparum 3D7": {"test_system": "P. falciparum 3D7", "experiment": "SYBR Green I growth inhibition assay, blood stage", "assay_type": "cell-based", "conditions": "Plasmodium falciparum", "procedure": "P. falciparum blood stage culturing. P. falciparum 3D7 and FCR3 cultures were maintained using modified, previously published methods at 37° C., 2% hematocrit of human red blood cells (Science 1976, 193, 673-675). Complete culture media consisted of sterile RPMI 1640 media (Life Technologies), supplemented with 10% human serum, 0.005% hypoxanthine, and buffered with final concentrations of 0.6% HEPES and 0.26% NaHCO3. The FCR3 strain was maintained at 3% CO2 and 5% O2, 92% N2 atmosphere, while the 3D7 strain was maintained at 5% CO2, 5% O2, 90% N2 atmosphere.\nSYBR Green I growth inhibition assay. 10 μL of 10× compound diluted in RPMI 1640 media (Gibco) with a constant concentration of 1% DMSO was added to a 96 well plate (Costar), 90 μL of 1.5% ring stage, synchronized with 5% w/v sorbitol P. falciparum 3D7 parasites, 1% hematocrit, in culture media with 10% v/v human serum with 10 μg/mL gentamycin. Each compound concentration and 1% v/v DMSO controls were run in triplicate. Plates were incubated at 37° C. in 5% O2, 5% CO2 and 90% N2 for 72 hours. Plates were frozen, thawed, and incubated with 100-μL 2× SYBR green in lysis buffer (20 mM Tris pH 7.5, 5 mM EDTA, 0.008% Saponin, 0.08% TritonX-100) in the dark for at least one hour. Fluorescence was measured with a plate reader (HTS 7000, Perkin Elmer) at excitation/emission wavelengths of 485/535 nm.\nPlasmodium parasite growth inhibition assay. P. falciparum 3D7 parasites were cultured as previously described (J Med Chem 57:4521-4531(2014)). Briefly, the parasites were cultured in 10% v/v human serum with 10 μg/mL gentamycin and synchronized with 5% w/v sorbitol. 1.5% ring stage parasites were added to 96 well plates (Costar) containing serial dilutions, performed in triplicate, of compound in RPMI 1640 media (Gibco). Plates were incubated at 37° C. in 5% O2, 5% CO2, and 90% N2 for 72 h. Plates were frozen, thawed, and incubated with 100 μL 2× SYBR green in lysis buffer (20 mM Tris pH 7.5, 5 mM EDTA, 0.008% Saponin, 0.08% TritonX-100) in the dark for 1 h. Fluorescence was measured with a plate reader (HTS 7000, PerkinElmer) at excitation/emission wavelengths of 485/535 nm."}, "P. falciparum 3D7-GFP": {"test_system": "P. falciparum 3D7-GFP", "assay_type": "cell-based", "conditions": "for decrease in the proportion of infected hepatocytes (GFP+/PI- cells): 72 hours post infection", "procedure": "In vitro infection of human hepatocytes with P. falciparum 3D7-GFP. The HC-04 cell line (ATCC, Manassas, Va., USA) was maintained in complete medium (IMDM containing 2.5% FCS, 100 units/ml penicillin, 100 μg/ml streptomycin and 2 mM L-glutamine, all from GIBCO®, Life Technologies, Grand Island, N.Y.). P. falciparum 3D7-GFP parasite strain (PLoS ONE 2010, 5, e9156) was propagated in the Parasitology Core facility, the Johns Hopkins Malaria Research Institute. In vitro infection of human hepatocytes was done as described previously (PLoS ONE 2013, 8, e75321). Briefly, salivary glands were sequestered from infected Anopheles gambiae mosquitoes at day 17 after exposure to infective blood meal and homogenates were separated on an OptiPrep™ Density Gradient (Sigma-Aldrich, St. Louis, Mo.) at 12,000×g for 10 minutes. Sporozoites were collected from the gradient interface, washed in complete medium, counted using a hemocytometer and incubated with HC-04 cells at 3:1 sporozoite to hepatocyte ratio for 2 hours at 37° C. […]\nDetection of P. falciparum exoerythrocytic forms in vitro. HC-04 human hepatocyte cell line (ATCC, Manassas, Va., USA) was maintained in complete medium (IMDM containing 2.5% FCS, 100 units/ml penicillin, 100 μg/ml streptomycin and 2 mM L-glutamine, all from GIBCO®, Life Technologies, Grand Island, N.Y.). P. falciparum 3D7HT-GFP parasite strain (PLoS One. 5(2):e9156. doi:10.1371/journal.pone.0009156 (2010)) was propagated in the Parasitology Core facility of the Johns Hopkins Malaria Research Institute. In vitro infection of human hepatocytes, and detection and quantification of P. falciparum 3D7HT-GFP EEFs by flow cytometry were performed as previously described (PLoS One. 8(9):e75321. doi:10.1371/journal.pone.0075321 (2013))."}, "HC-04 cells": {"test_system": "HC-04 cells", "experiment": "HC-04 hepatocyte viability / cytotoxicity (Annexin-V, PI flow cytometry)", "assay_type": "cell-based, human", "conditions": "30 μM", "quoted_text": "Detection of Annexin-V positive and PI-positive cells in hepatocyte cultures was done by flow cytometry according to the manufacturer's instruction (Invitrogen™, Life Technologies, Grand Island, N.Y., USA).\nHepatocyte cytotoxicity assay. Hepatocyte cytotoxicity assays were carried out in triplicate at two concentrations of inhibitory compounds using HC-04 cells as previously described. Flow cytometry was used to assess two cytotoxicity markers via staining, namely propidium iodine (PI) and Annexin-V."}, "PfAtg8": {"test_system": "PfAtg8", "experiment": "Immunoblot analysis of PfAtg8 in P. falciparum blood stage cultures", "assay_type": "cell-based", "conditions": "for lipidation of PfAtg8: 12 hours", "excerpt": "Immunoblot analysis of P. falciparum blood stage. […] RBCs were harvested with centrifugation, lysed with 0.2% saponin, and RBC lysate was removed through three 1× PBS washes. Parasites were harvested by centrifugation and washed in 1× PBS with Complete EDTA-free protease inhibitors (Roche) and lysed by repeated vortexing and boiling in SDS reducing sample buffer. […] HRP-conjugated secondary antibodies (Southern Biotech) were detected by SuperSignal West Femto (Thermo Scientific) or Amersham™ ECL™ Prime (GE Healthcare) chemiluminescent substrate. AP-conjugated secondary antibodies (EMD Millipore) were detected using NBT/BCIP (Promega) colorimetric stain. Total protein levels were visualized with ProAct™ Membrane Stain (Amresco) and quantified with ImageJ. Parasite morphology at time of harvesting was visualized with light microscopy at 100× magnification on Olympus BX53 system microscope (Olympus America, Inc.)."}, "P. yoelii liver stage": {"test_system": "P. yoelii liver stage", "conditions": "screening concentration 10 μM; cited from earlier work"}, "human cell lines": {"test_system": "human cell lines", "conditions": "cited from earlier work"}, "PfAtg8^CM [1]": {"molecular_target": "PfAtg8^CM (Plasmodium falciparum, UniProt Q8IJK2)", "experiment": "SPR direct binding of compound 1 to immobilized His12-PfAtg8^CM", "parameters": "other: 2-fold dilution series, highest 75 μM; fused on or other part: N-terminal His12 tag; species or system P. falciparum", "conditions": "2-fold dilution series, highest 75 μM", "procedure": "His12-PfAtg8^CM was injected over an NTA-chip (GE Healthcare) preconditioned with nickel, leading to capture of 3,000 response units (RUs). Running buffer contained 3% DMSO. A 2-fold-dilution series of compounds, highest concentration of 75 μM, was injected over PfAtg8 variants at 40 μL/minute.\nDetermination of the PTA binding site on PfAtg8. The inventors tested whether these compounds bound directly to PfAtg8 using SPR. PfAtg8^CM was immobilized onto an SPR Ni-NTA chip via a twelve histidine N-terminal tag. […] It was then sought to determine the binding site for the PTA compounds with in silico docking."}, "[2]": {"molecular_target": "PfAtg8-PfAtg3 interaction (Plasmodium falciparum, UniProt Q8IJK2)", "assay_type": "binding, P. falciparum"}, "PfAtg8^CM [3]": {"molecular_target": "T1, PfAtg8^CM (Plasmodium falciparum, UniProt Q8IJK2)", "T1 construct": "rows headed: KD; other: immobilized compound", "T1 sequence (Q8IJK2 1-124 C32I/C119S/C122S)": "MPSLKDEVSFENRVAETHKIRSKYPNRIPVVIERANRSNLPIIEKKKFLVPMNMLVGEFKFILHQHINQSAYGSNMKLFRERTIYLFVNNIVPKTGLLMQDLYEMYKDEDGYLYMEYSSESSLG", "experiment": "SPR binding of PfAtg8^CM to immobilized compound 8", "parameters": "species or system P. falciparum", "procedure": "(§1) Direct binding of compound 8 to PfAtg8^CM. Compound 8 was injected over a neutravidin-coated SPR chip (GE Healthcare) on one flowcell, with 130 RUs immobilized, while BACH was injected over a reference flowcell (150 RUs immobilized). His6-PfAtg8^CM, Human LC3, or His6-PfAtg3 was injected in duplicate in running buffer containing 10 mM HEPES pH 7.5, 150 mM NaCl, 0.05% P20. Protein was dissociated from the chip after each cycle with 10 μL injection of 20 mM HEPES pH 7.4, 1% w/v SDS regeneration solution.\n(§2) Synthesis of a novel PTA derivative with a functional handle. […] A PTA-benzaldehyde derivative, 4-formyl-N-(4-pyridin-2-yl-1,3-thiazol-2-yl)benzamide (compound 7) was synthesized with a functional handle extending off the common hydrophobic ring system (Table 1, Scheme 1). Compound 7 was prepared from commercially available PTA and 4-formyl benzoic acid through a DCC-promoted amide coupling. Compound 7 can be tethered through a dialkoxyamine linker to a library of aldehydes and screened using our primary SPR competition assay against the PfAtg8-PfAtg3 interaction. In docking studies, compound 7 bound the W- and L-site of PfAtg8 in a fashion similar to compound 2, with the functional handle positioned towards the A-loop pocket (FIG. 7A). A gain in parasite selectivity for such bifunctional analogs is expected as the A-loop is missing in the human Atg8 homologues. […]"}, "hLC3": {"molecular_target": "T2, hLC3 (Homo sapiens, UniProt Q9GZQ8)", "T2 construct": "made in house", "experiment": "SPR binding of hLC3 to immobilized compound 8", "procedure": "as §1, §2"}, "PfAtg3": {"molecular_target": "T3, PfAtg3 (Plasmodium falciparum, UniProt C0H519)", "T3 construct": "made in house", "T3 sequence (C0H519 1-313)": "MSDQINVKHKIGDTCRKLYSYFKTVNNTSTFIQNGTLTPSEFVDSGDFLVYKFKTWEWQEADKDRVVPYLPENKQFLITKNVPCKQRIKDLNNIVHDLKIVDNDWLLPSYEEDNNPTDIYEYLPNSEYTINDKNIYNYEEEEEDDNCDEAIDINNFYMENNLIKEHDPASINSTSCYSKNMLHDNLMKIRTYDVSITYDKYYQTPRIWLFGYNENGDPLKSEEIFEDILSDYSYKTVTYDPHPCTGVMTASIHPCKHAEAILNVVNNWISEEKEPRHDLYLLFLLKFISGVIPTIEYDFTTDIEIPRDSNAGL", "experiment": "SPR binding of PfAtg3 to immobilized compound 8", "conditions": "data not shown", "procedure": "as §1, §2"}, "[4]": {"conditions": "3D7, no asterisk, read-out: IC50 Blood stage"}}, "note": "Where two headings read alike, the source gives them in different places.", "data": [{"smiles": "Cc1ccc(Nc2nc(-c3ccccn3)cs2)cc1", "note": "[Compound 1, N-(4-methylphenyl)-4-pyridin-2-yl-1,3-thiazol-2-amine]", "values": [{"measurement": "IC50", "setting": "P. falciparum 3D7; [4]", "value": 1470, "unit": "nM"}, {"measurement": "IC50", "setting": "P. falciparum 3D7; 3D7, third experiment, read-out: IC50", "value": 3300, "unit": "nM"}, {"measurement": "IC50", "setting": "P. falciparum 3D7; 3D7, two of three independent experiments, read-out: IC50", "value": 768, "unit": "nM"}, {"measurement": "IC50", "setting": "P. falciparum 3D7; 3D7, two to three experiments, read-out: average IC50", "value": "1610 ± 1470", "unit": "nM"}, {"measurement": "intensity of GFP fluorescence", "setting": "P. falciparum 3D7-GFP; 3 μM and 30 μM, 72 hours", "value": "dose-dependent reduction"}, {"measurement": "decrease in the proportion of infected hepatocytes (GFP+/PI- cells)", "setting": "P. falciparum 3D7-GFP; 3 μM", "value": "but not 3 μM"}, {"measurement": "decrease in the proportion of infected hepatocytes (GFP+/PI- cells)", "setting": "P. falciparum 3D7-GFP; 30 μM", "value": "~50", "unit": "%"}, {"measurement": "cell death in HC-04 cells", "setting": "HC-04 cells", "value": "did not observe cell death"}, {"measurement": "lipidation of PfAtg8", "setting": "PfAtg8; 5 μM", "value": "dose-dependent decrease in lipidation"}, {"measurement": "lipidation of PfAtg8", "setting": "PfAtg8; 25 μM and 50 μM", "value": "unlipidated PfAtg8 is exclusively detected"}, {"measurement": "PfAtg8 protein levels", "setting": "PfAtg8; 50 μM, five hours", "value": "drastic increase"}, {"measurement": "mobility of PfAtg8", "setting": "PfAtg8; 50 μM, five hours", "value": "shift in mobility, likely corresponding to the unlipidated form of PfAtg8"}, {"measurement": "inhibition in P. yoelii liver stage cultures", "setting": "P. yoelii liver stage", "value": "≤ 50", "unit": "%"}, {"measurement": "reported cytotoxicity in human cell lines", "setting": "human cell lines", "value": "much lower than that of compounds 2 or 3"}, {"measurement": "SPR response, direct binding to PfAtg8^CM", "setting": "PfAtg8^CM [1]", "value": "dose-dependent increase in SPR response"}]}, {"smiles": "O=C(CCCC[C@H]1SC[C@H]2NC(=O)N[C@H]21)NCCCCCC(=O)NNCc1ccc(C(=O)Nc2nc(-c3ccccn3)cs2)cc1", "note": "[Compound 8, 4-[[2-[6-[5-[(3aR,4R,6aS)-2-Oxo-1,3,3a,4,6,6a-hexahydrothieno[3,4-d]imidazol-4-yl]pentanoylamino]hexanoyl]hydrazinyl]methyl]-N-(4-pyridin-2-yl-1,3-thiazol-2-yl)benzamide]", "values": [{"measurement": "LEAN (SPR)", "setting": "[2]; -log (IC50)/number of heavy atoms", "value": 0.22}, {"measurement": "IC50", "setting": "[2]; read-out: IC50 SPR, inhibition of PfAtg8-PfAtg3 interaction", "value": 2660, "unit": "nM"}, {"measurement": "IC50", "setting": "P. falciparum 3D7; [4]", "value": 1480, "unit": "nM"}, {"measurement": "Kd", "setting": "PfAtg8^CM [3]", "value": 540, "unit": "nM"}, {"measurement": "Kd", "setting": "hLC3", "value": 18, "unit": "µM"}, {"measurement": "binding of recombinant PfAtg3", "setting": "PfAtg3", "value": "did not bind"}]}]}
